Measured values taken from US11596622B2, “Mazindol treatment for heroin dependence and substance use disorder” (NLS Pharmaceutics AG, priority 2017, dated 2023).

How the values were obtained:
[1] = biological target: T1, Norepinephrine transporter (h) (Homo sapiens, UniProt P23975); test: Radioligand binding, norepinephrine transporter (Eurofins CEREP); conditions: 1.0 × 10^−05 M; antagonist radioligand; read-out: percent inhibition of the binding of a radioactively labeled ligand
T1 construct: Eurofins CEREP
T1 sequence (P23975 whole entry): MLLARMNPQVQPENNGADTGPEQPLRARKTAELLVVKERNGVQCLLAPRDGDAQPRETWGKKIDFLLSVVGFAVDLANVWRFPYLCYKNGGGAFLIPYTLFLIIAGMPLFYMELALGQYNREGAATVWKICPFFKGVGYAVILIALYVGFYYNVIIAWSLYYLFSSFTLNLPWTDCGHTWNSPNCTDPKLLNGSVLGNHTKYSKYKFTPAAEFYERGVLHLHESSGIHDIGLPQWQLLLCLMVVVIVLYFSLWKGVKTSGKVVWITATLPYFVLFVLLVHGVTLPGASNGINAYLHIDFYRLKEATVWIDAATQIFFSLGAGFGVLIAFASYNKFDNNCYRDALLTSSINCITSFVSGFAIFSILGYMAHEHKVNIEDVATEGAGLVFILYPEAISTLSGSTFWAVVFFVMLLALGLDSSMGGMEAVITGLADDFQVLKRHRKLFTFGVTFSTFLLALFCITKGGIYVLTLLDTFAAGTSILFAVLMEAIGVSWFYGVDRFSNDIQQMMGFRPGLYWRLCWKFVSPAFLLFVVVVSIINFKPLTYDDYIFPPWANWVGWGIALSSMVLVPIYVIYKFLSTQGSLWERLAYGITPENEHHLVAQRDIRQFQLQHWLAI
Source text: Table A discloses mazindol and Met tested at […] and the compound binding calculated as a percent inhibition of the binding of a radioactively labeled ligand specific for each target (Eurofins CEREP, France).
An inhibition or stimulation of more than 50% is considered a significant effect of the test compounds. Fifty percent is a common cut-off for further investigation (i.e. determination of IC50 or EC50 values from concentration-response curves). Tables B and C display the binding profiles for Mazindol and Met.
The results are expressed as a percent of control specific binding obtained in the presence of the test compounds:
[formula] and as a percent inhibition of control specific binding obtained in the presence of the test compounds: […]

Sprague-Dawley rats = test: Naloxone precipitated withdrawal syndrome of heroin; assay type: in vivo; conditions: for Abdominal constrictions score (Abd C) / Abnormal posture score (Ab P) / Chromodacryorrhea score (Chr) / Diarrhea score (Diarr) / Erection or ejaculation score (Er Ej) / Escape attempts score (Esc A) / Facial fasciculation or teeth chattering score (F F T C) / Global Score / Irritability score (Irrit) / Profuse salivation score (Pr Sal) / Ptosis score (Ptos) / Swallowing movements score (Sw M) / Weight loss score (W Los) / Wet dog shakes score (W D S): mean
Experimental: The abrupt cessation of chronic opiate use results in a well characterized withdrawal syndrome with symptoms that include pain sensitivity, dysphoria, irritability, restlessness, insomnia, diarrhea and hyperventilation. In the present model, the naloxone-precipitated withdrawal syndrome is measured in rodents. Animals are chronically treated with a drug, e.g. morphine or heroin. Opiate withdrawal syndrome is elicited by an acute injection of the opiate antagonist Naloxone.
The effect of mazindol on heroin withdrawal syndrome elicited by naloxone was examined in Sprague-Dawley rats using a method similar to the one used by Jiang et al. (10),
Animals were subdivided into two groups. One group received heroin two i.p. injections/day for 12 consecutive days and a single injection on the 13th day (total: 25 injections) as exposed in Table 3 group received saline instead of heroin following the same protocol.
On day 13, animals received treatments and were tested according to the following time schedule: • T=0: i.p. injection of heroin (15 mg/kg) or vehicle. • T=2.5 h: animals individually placed in a transparent Plexiglas observation boxes (40×40×40 cm). • T=3.5 h: i.p. injection of treatment (see below). • T=4 h: i.p. injection of naloxone (5 mg/kg), start of test: observation of withdrawal symptoms as indicated in Table 4. • T=5 h: end of test, animals placed back into their home cages.
Animals received the following treatments at T 3.5 h (i.e. 30 min before injection of naloxone and observation of symptoms): • 1) Animals treated with saline during the intoxication period (days 1-12) and at T0 on day 13: • Saline group (N=8): saline (0.9% NaCl). • 2) Animals treated with […] during the intoxication period (days 1-12) and at T0 on day 13: • Hero group (N=14): saline (0.9% NaCl). • Amph 1 group (N=4): D-amphetamine (1 mg/kg). • Maz 0.125 group (N=5): mazindol (0.125 mg/kg). • Maz 0.25 group (N=6): mazindol (0.25 mg/kg). • Maz 0.5 group (N=6): mazindol (0.5 mg/kg). • Maz 1 group (N=6): mazindol (1 mg/kg). • Maz 2 group (N=5): mazindol (2 mg/kg).
A weighting factor was ascribed for each sign from which a score was calculated.
Examples: • Body weight before naloxone injection=241 g; after naloxone injection=236 g: • Weight loss score=2=100×(241−236)/241 • Number of escape attempts=8: • Score for escape attempts=2 • Profuse salivation present: • Score for profuse salivation
A global withdrawal score was then calculated: • Global score=the sum of the scores

[2] = Maz 0.125: heroin-treated rats, mazindol 0.125 mg/kg i.p. 30 min before naloxone 5 mg/kg
[3] = Maz 0.25: heroin-treated rats, mazindol 0.25 mg/kg i.p. 30 min before naloxone 5 mg/kg
[4] = Maz 0.5: heroin-treated rats, mazindol 0.5 mg/kg i.p. 30 min before naloxone 5 mg/kg
[5] = Maz 1: heroin-treated rats, mazindol 1 mg/kg i.p. 30 min before naloxone 5 mg/kg
[6] = Maz 2: heroin-treated rats, mazindol 2 mg/kg i.p. 30 min before naloxone 5 mg/kg

OC1(c2ccc(Cl)cc2)c2ccccc2C2=NCCN21 (stereo not drawn) [Mazindol, 5-(4-chlorophenyl)-2,5-dihydro-3 H-imadazo[2,1-a]isoindol-5-ol]
inhibition at 10 µM [1]: 100%
Abdominal constrictions score (Abd C) (Sprague-Dawley rats; [2]): 2.8
Abnormal posture score (Ab P) (Sprague-Dawley rats; [2]): 0.0
Chromodacryorrhea score (Chr) (Sprague-Dawley rats; [2]): 2.0
Diarrhea score (Diarr) (Sprague-Dawley rats; [2]): 0.8
Erection or ejaculation score (Er Ej) (Sprague-Dawley rats; [2]): 0.0
Escape attempts score (Esc A) (Sprague-Dawley rats; [2]): 1.0
Facial fasciculation or teeth chattering score (F F T C) (Sprague-Dawley rats; [2]): 1.6
Global Score (Sprague-Dawley rats; [2]): 13.2
Irritability score (Irrit) (Sprague-Dawley rats; [2]): 0.0
Profuse salivation score (Pr Sal) (Sprague-Dawley rats; [2]): 0.0
Ptosis score (Ptos) (Sprague-Dawley rats; [2]): 0.0
Swallowing movements score (Sw M) (Sprague-Dawley rats; [2]): 1.2
Weight loss score (W Los) (Sprague-Dawley rats; [2]): 1.0
Wet dog shakes score (W D S) (Sprague-Dawley rats; [2]): 2.8
Abdominal constrictions score (Abd C) (Sprague-Dawley rats; [3]): 0.0
Abnormal posture score (Ab P) (Sprague-Dawley rats; [3]): 0.0
Chromodacryorrhea score (Chr) (Sprague-Dawley rats; [3]): 0.8
Diarrhea score (Diarr) (Sprague-Dawley rats; [3]): 1.0
Erection or ejaculation score (Er Ej) (Sprague-Dawley rats; [3]): 0.0
Escape attempts score (Esc A) (Sprague-Dawley rats; [3]): 0.7
Facial fasciculation or teeth chattering score (F F T C) (Sprague-Dawley rats; [3]): 2.0
Global Score (Sprague-Dawley rats; [3]): 8.3
Irritability score (Irrit) (Sprague-Dawley rats; [3]): 0.0
Profuse salivation score (Pr Sal) (Sprague-Dawley rats; [3]): 0.0
Ptosis score (Ptos) (Sprague-Dawley rats; [3]): 0.0
Swallowing movements score (Sw M) (Sprague-Dawley rats; [3]): 1.0
Weight loss score (W Los) (Sprague-Dawley rats; [3]): 1.2
Wet dog shakes score (W D S) (Sprague-Dawley rats; [3]): 1.7
Abdominal constrictions score (Abd C) (Sprague-Dawley rats; [4]): 0.0
Abnormal posture score (Ab P) (Sprague-Dawley rats; [4]): 0.0
Chromodacryorrhea score (Chr) (Sprague-Dawley rats; [4]): 0.0
Diarrhea score (Diarr) (Sprague-Dawley rats; [4]): 1.0
Erection or ejaculation score (Er Ej) (Sprague-Dawley rats; [4]): 0.0
Escape attempts score (Esc A) (Sprague-Dawley rats; [4]): 1.7
Facial fasciculation or teeth chattering score (F F T C) (Sprague-Dawley rats; [4]): 2.0
Global Score (Sprague-Dawley rats; [4]): 9.7
Irritability score (Irrit) (Sprague-Dawley rats; [4]): 0.0
Profuse salivation score (Pr Sal) (Sprague-Dawley rats; [4]): 0.0
Ptosis score (Ptos) (Sprague-Dawley rats; [4]): 0.0
Swallowing movements score (Sw M) (Sprague-Dawley rats; [4]): 0.3
Weight loss score (W Los) (Sprague-Dawley rats; [4]): 1.7
Wet dog shakes score (W D S) (Sprague-Dawley rats; [4]): 3.0
Abdominal constrictions score (Abd C) (Sprague-Dawley rats; [5]): 0.0
Abnormal posture score (Ab P) (Sprague-Dawley rats; [5]): 0.0
Chromodacryorrhea score (Chr) (Sprague-Dawley rats; [5]): 1.7
Diarrhea score (Diarr) (Sprague-Dawley rats; [5]): 1.7
Erection or ejaculation score (Er Ej) (Sprague-Dawley rats; [5]): 0.5
Escape attempts score (Esc A) (Sprague-Dawley rats; [5]): 2.5
Facial fasciculation or teeth chattering score (F F T C) (Sprague-Dawley rats; [5]): 2.0
Global Score (Sprague-Dawley rats; [5]): 14.0
Irritability score (Irrit) (Sprague-Dawley rats; [5]): 0.0
Profuse salivation score (Pr Sal) (Sprague-Dawley rats; [5]): 1.2
Ptosis score (Ptos) (Sprague-Dawley rats; [5]): 0.0
Swallowing movements score (Sw M) (Sprague-Dawley rats; [5]): 0.3
Weight loss score (W Los) (Sprague-Dawley rats; [5]): 3.2
Wet dog shakes score (W D S) (Sprague-Dawley rats; [5]): 1.0
Abdominal constrictions score (Abd C) (Sprague-Dawley rats; [6]): 0.0
Abnormal posture score (Ab P) (Sprague-Dawley rats; [6]): 0.6
Chromodacryorrhea score (Chr) (Sprague-Dawley rats; [6]): 1.0
Diarrhea score (Diarr) (Sprague-Dawley rats; [6]): 2.0
Erection or ejaculation score (Er Ej) (Sprague-Dawley rats; [6]): 0.0
Escape attempts score (Esc A) (Sprague-Dawley rats; [6]): 1.6
Facial fasciculation or teeth chattering score (F F T C) (Sprague-Dawley rats; [6]): 0.4
Global Score (Sprague-Dawley rats; [6]): 10.4
Irritability score (Irrit) (Sprague-Dawley rats; [6]): 0.0
Profuse salivation score (Pr Sal) (Sprague-Dawley rats; [6]): 1.4
Ptosis score (Ptos) (Sprague-Dawley rats; [6]): 0.0
Swallowing movements score (Sw M) (Sprague-Dawley rats; [6]): 0.0
Weight loss score (W Los) (Sprague-Dawley rats; [6]): 3.0
Wet dog shakes score (W D S) (Sprague-Dawley rats; [6]): 0.4
effect on the score for escape attempt (Sprague-Dawley rats; mazindol 2 mg/kg): increased
effect on the scores for weight loss and diarrhea (Sprague-Dawley rats; mazindol 0.125-2 mg/kg): Did not significantly reduce
reduction of the global score (FIG. 4) (Sprague-Dawley rats; mazindol 0.125-2 mg/kg): significant at all doses except 0.125 mg/kg
reduction of the score for facial fasciculation or teeth chattering (FIG. 6) (Sprague-Dawley rats; mazindol 0.125-2 mg/kg): significant at 2 mg/kg
reduction of the score for profuse salivation (FIG. 6) (Sprague-Dawley rats; mazindol 0.125-2 mg/kg): significant at all doses except 2 mg/kg
reduction of the score for wet dog shake (FIG. 5) (Sprague-Dawley rats; mazindol 0.125-2 mg/kg): significant effect at 1 and 2 mg/kg
effect on naloxone precipitated withdrawal symptoms of heroin (Sprague-Dawley rats; mazindol, significant at 0.25, 0.5, 1 and 2 mg/kg, but not at 0.125 mg/kg): decreased the naloxone precipitated withdrawal symptoms of heroin
